From US8354539B2, “Indole derivatives as IKK2 inhibitors” (Glaxo Group Limited, priority 2009, dated 2013)

Tests used:
[1] = target: T1, Recombinant human IKKβ (IKK2) (Homo sapiens, UniProt O14920); assay: IKK2 assay (TR-FRET); assay type: biochemical; settings: read-out: pIC50 potency against IKK2 (converted)
T1 construct: Recombinant human IKKβ (residues 5-756); GST (C); made in house
T1 sequence (O14920 5-756): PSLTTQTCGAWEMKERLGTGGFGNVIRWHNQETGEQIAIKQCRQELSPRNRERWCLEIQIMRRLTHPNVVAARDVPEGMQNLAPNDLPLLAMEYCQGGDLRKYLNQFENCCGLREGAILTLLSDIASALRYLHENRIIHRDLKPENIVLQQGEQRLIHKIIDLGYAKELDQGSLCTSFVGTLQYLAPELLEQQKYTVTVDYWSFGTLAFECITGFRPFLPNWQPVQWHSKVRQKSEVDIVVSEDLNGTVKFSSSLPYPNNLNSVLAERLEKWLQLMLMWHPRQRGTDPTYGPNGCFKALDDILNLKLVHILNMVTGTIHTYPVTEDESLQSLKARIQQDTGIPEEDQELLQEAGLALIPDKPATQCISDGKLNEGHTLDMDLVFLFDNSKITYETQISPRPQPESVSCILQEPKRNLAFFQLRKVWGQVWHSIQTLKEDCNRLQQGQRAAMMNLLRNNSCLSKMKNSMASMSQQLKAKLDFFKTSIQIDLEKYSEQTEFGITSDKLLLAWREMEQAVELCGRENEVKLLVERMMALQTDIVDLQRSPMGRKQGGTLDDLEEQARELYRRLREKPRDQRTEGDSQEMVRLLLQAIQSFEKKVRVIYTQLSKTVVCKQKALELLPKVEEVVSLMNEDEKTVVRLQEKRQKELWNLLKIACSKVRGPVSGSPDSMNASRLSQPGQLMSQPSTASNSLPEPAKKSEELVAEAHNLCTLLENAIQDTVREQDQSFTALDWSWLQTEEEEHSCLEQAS
Method: Recombinant human IKKβ (residues 5-756) was expressed in baculovirus as a C-terminal GST-tagged fusion protein, and its activity was assessed using a time-resolved fluorescence resonance energy transfer (TR-FRET) assay. Briefly, IKKβ (0.5-4 nM final concentration) diluted in assay buffer (50 mM HEPES, 10 mM MgCl2, 1 mM CHAPS pH 7.4 with 1 mM DTT and 0.01% w/v BSA) was added to wells containing various concentrations of compound or DMSO vehicle (1.7% v/v final). The reaction was initiated by the addition of GST-IkappaBalpha substrate (25 nM final)/ATP (1 μM final), in a total volume of 6 μl. The reaction was incubated for 15 mins at room temperature, then terminated by the addition of 3 μl of 50 mM EDTA in buffer (100 mM HEPES pH 7.4, 150 mM NaCl and 0.1% w/v BSA) containing antiphosphoserine-IkappaBalpha-32/36 monoclonal antibody clone 12C2 (Cell Signalling Technology, Beverly Mass., USA) labelled with W-1024 europium chelate (Wallac O Y, Turku, Finland), and an APC-labelled anti-GST antibody (Prozyme, San Leandro, Calif., USA). The reaction was further incubated for 60 mins at room temperature and the degree of phosphorylation of GST-IkappaBalpha measured using a Rubystar plate reader (BMG Instruments, Aylesbury, UK) as a ratio of specific 665 nm energy transfer signal to reference europium 620 nm signal.

[2] = system: human peripheral blood mononuclear cells (PBMC); assay: Human peripheral blood mononuclear cell assay (LPS stimulated TNFa production); assay type: cell-based; settings: read-out: pIC50 potency, inhibition of TNF production (converted)
Method: The cellular potency of compounds was assessed in human peripheral blood mononuclear cells (PBMC) by measuring their impact on lipopolysaccharide (LPS) stimulated TNFa production. PBMCs were prepared from heparinised human blood from normal volunteers by centrifugation on hystopaque in Accuspin tubes at 800 g for 20 minutes. The cells were collected from the interface, washed by centrifugation (1300 g, 10 minutes) and resuspended in assay buffer (RPMI1640 containing 10% foetal calf serum, 1% L-glutamine and 1% penicillin/streptomycin) at 1×10^6 cells/ml. […] The supernatant was removed and the concentrations of TNF determined by electrochemiluminescence assay using the MSD technology.
20 μl supernatant from PBMC plates or 40 μl from whole blood plates was transferred using the Biomek FX to a 96 well High-Bind MSD assay plate precoated with anti-hTNF alpha capture antibody and containing 25 μl of MSD human serum cytokine assay diluent. […] The plates were shaken at room temperature for a further 1 hour before washing again and adding 150 μl of MSD Read Buffer T (2×). Plates were then read on the MSD Sector 6000 plate reader. For the PBMC assay, supernatant addition to the MSD plates was followed immediately by 20 μl of MSD detection antibody, the plates were then sealed and shaken for 2 hours before addition of 90 μl of MSD Read Buffer P (2.5×). Plates were read on the MSD Sector 6000. […]

A549 SPAP cells = assay: NFkB reporter assay; assay type: cell-based; settings: Homo sapiens, TNF stimulated, read-out: pIC50 potency (converted)
Method: A 70% confluent T225 flask of A549 SPAP cells was harvested by centrifugation for 5 min at 200 g, resuspended in assay buffer (DMEM supplemented with 10% FCS 2×HI, 2 mM L-Glutamine, 1% Pen/Strep and Non essential amino acids) and diluted to 0.16×10^6/ml. 60 μl of cell solution was dispensed to each well of clear Nunc 384-well plates, containing 0.5 μl compound in neat DMSO at 140× the required final assay concentration. Plates were incubated for 1h at 37° C., 95% humidity, 5% CO2 before […] of TNF solution in assay buffer was added to give a final concentration of 3.2 ng/ml and then returned to the cell incubator for 15 h. Plates were equilibrated to room temperature for 1 h prior to the addition of 25 μl of pNPP buffer (1 M Diethanolamine pH 9.8, 0.5 mM MgCl2, 0.28M NaCl, 2 mg/ml pNPP) to each well of assay plates. The plates were covered to protect the reagents from light, and then incubated at room temperature for approximately 1 hour before reading them on an Ascent using a 405 nm single filter.
All data was normalized to the mean of 16 high and 16 low control wells on each plate. A four parameter curve fit of the following form was then applied

IC50 [1]: < 100 nM | IC50 (A549 SPAP cells): < 31.6 nM
Structure (SMILES): COCCS(=O)(=O)N1CCC(c2c[nH]c3c(C(N)=O)cc(-c4ccc5c(c4)CN(C(C)C)C5)cc23)CC1 [Compound of formula (I), 5-[2-(1-methylethyl)-2,3-dihydro-1H-isoindol-5-yl]-3-(1-{[2-(methyloxy)ethyl]sulfonyl}-4-piperidinyl)-1H-indole-7-carboxamide]
IC50 [2]: < 31.6 nM
